{"source": "patent US20020137141A1", "about": "“Short peptides from the 'A-region' of protein kinases which selectively modulate protein kinase activity” (Children's Medical Center Corporation, priority 2000, published 2002)", "molecules": {"B1": {"name": "Noggin: specific inhibitor of BMP-4; condition medium of noggin producing-CHO cells (protein, UniProt Q13253 28-232, looked up)", "Noggin": "QHYLHIRPAPSDNLPLVDLIEHPDPIFDPKEKDLNETLLRSLLGGHYDPGFMATSPPEDRPGGGGGAAGGAEDLAELDQLLRQRPSGAMPSEIKGLEFSEGLAQGKKQRLSKKLRRKLQMWLWSQTFCPVLYAWNDLGSRFWPRYVKVGSCFSKRSCSVPEGMVCKPSKSVHLTVLRWRCQRRGGQRCGWIPIQYPIISECKCSC", "modifications": "CHO conditioned medium", "notes": "condition medium of noggin producing-CHO cells"}}, "key": {"[1]": {"test_system": "Erk1", "assay": "Western blot, phosphorylation of downstream substrate Erk1", "type": "cell-based, rat", "settings": "dose dependent, compared with insulin, FIG. 10", "method": "(§1) All experiments were carried out with H4 cells (Rat hepatoma cell line).Cells were pre-incubated with the compound K094A107 comprising an IRK-derived peptide (SEQ ID NO: 102)(10mM) or the corresponding controls for 3 hours ( one control was control -no treatment vehicle only, the second control was an irrelevant peptide derived from a non-A-region of a kinase), and with human recombinant insulin (100 nM), for 5 minutes. The cells were then lysed and cell lysates were subjected to Western Blot analysis followed by detection with ECL.\n(§2) The membrane was incubated overnight with a primary polyclonal Anti-PhosphoPKB (phospho-serine 473 PKB)Ab, or with an antibody for IRK and then, after 3 washes with TBST, with secondary HRP antibody was added for 1 hour. In the second gel the membrane was incubated overnight with a primary monoclonal PhosphoTyrosine Kinase (PY99) Ab that labels phosphorylated tyrosine, and then after 3 washes with TBST, a secondary antibody was added for 1 hour.\n(§3) A similar experiment was conducted with the difference being that the substrates tested were the substrates of the kinase associated signal transduction that are more downstream in the pathway: Erk1, and p38-MAP."}, "[2]": {"test_system": "IRK", "assay": "Western blot, phosphorylation of IRK in H4 cells", "type": "cell-based, rat", "design": "dose or concentration left out as unconfirmed", "settings": "pre-incubated 3 hours with compound, FIG. 9", "method": "as §1, §2"}, "[3]": {"test_system": "adipose cells", "assay": "Glucose uptake (3H-deoxy glucose) in fresh rat adipocytes", "type": "cell-based", "settings": "for glucose uptake: 10 μM compound, fresh adipocytes, without insulin, vs control (vehicle)", "method": "To 3 ml of KRBH buffer with 10 mg collagenase, 3g epididymal fat pad (from 2-3 male rats lightly ether anesthesised and then decapitated) was introduced. The fat was cut up with scissors. The pieces of fat were swirled and shaken in the collagenase solution in a 37° C. water bath, set at 100-150 repetitions/minute, for approximately 1 hour with swirling every 15 minutes while digesting and every 5 minutes towards the end. About 6 ml of buffer was then added to the vial. The content of the vial was gently squeezed through a 250 μ nylon mesh into a 50 ml plastic tube. The residual fat tissue was washed (the total volume for each wash was 15 ml): the tube was centrifuged whereby the adipose cells floated at the top of the liquid. The buffer was removed using a syringe with polyethylene capillary. Buffer was added to get 15 ml and clumps of adipose cells were broken up by gently mixing up and down. This procedure was repeated for a total of 4 centrifugations: 3 centrifugations at 1000 rpm with the last centrifugation at 2000 rpm. At this point, the buffer was removed. Fresh buffer was added to the cell suspension to form a cytocrit of 5-10%. The cells were rolled at 10 rpm at 37° C. for 1 hour.\n50 μl 0.1% BSA in PBS was placed with compounds comprising IRK-derived peptides (final concentrations: 0.1-50 μM) or the peptide-vehicle in each 2 ml plastic tube in duplicates. 950 μl aliquots of the cell suspension were added to the tubes. After incubation for 1 hour at 37° C. in a roller (10 rpm), 200 ul of insulin was added to certain tubes to get final concentrations of 2.5-1000 uU/ml and than 200 μl of KRBH buffer containing 3H—Deoxy Glucose (approx. 1200 dpm/μl) was added to each tube. After 30 minutes incubation with the 3H-DOG and insulin at 37° C., 200 μl aliquots were transferred to microcentrifuge tubes containing 200 μl Dinonyl phthalate in duplicates. Cells were rapidly separated from the aqueous buffer by centrifugation at 10,000 g for 60 sec. The cells were isolated in the top layer of the dinonyl phthalate phase. The upper part of the tube (which contains the cells) was cut and transferred to scintillation tube. 4 ml of scintillation liquid was added.\nCell associated radioactivity was counted in a liquid scintillation beta counter.\nGlucose-uptake was measured in fresh adipocytes, incubated with or without insulin (10 μ/ml) as described above, in the absence (vehicle) or the presence of 10 μM of a compound K094A107 (“107”) SEQ ID NO: 102; or K094A205 (“205”) (SEQ ID NO: 123), which was kept in a reducing environment (5 to 25 μM DTT) As a comparison the glucose uptake with insulin alone was determined."}, "[4]": {"test_system": "p38-MAP", "assay": "Western blot, phosphorylation of downstream substrate p38-MAP", "type": "cell-based, rat", "settings": "dose dependent, compared with insulin, FIG. 10", "method": "as §1, §2, §3"}, "[5]": {"test_system": "IRK substrates", "assay": "Western blot of FIG. 10 as worded in the figure legend", "type": "cell-based, rat", "settings": "FIG. 10 legend", "method": "as §1, §3"}, "[6]": {"test_system": "PKB", "assay": "Western blot, phosphorylation of PKB in H4 cells", "type": "cell-based, rat", "design": "dose or concentration left out as unconfirmed", "settings": "pre-incubated 3 hours with compound, phospho-serine 473, FIG. 9", "method": "as §1, §2"}, "[7]": {"test_system": "neural crest cells", "assay": "Emigration of neural crest cells from explanted neural primordia", "type": "cell-based, quail", "source_text": "The procedure for explants of neural primordia is described in greater detail in Sela-Donefeld and Kalcheim (Development, 125(21): 4749-4762 (1999)), the teaching of which was incorporated herein by reference.\nThe trunk region of 16 somite-old quail embryos was separately sectioned at the level of the segmental plate plus the last 2 epithelial somite pairs. Neural primordia consisting of the neural tube and premigratory neural crest cells were isolated from adjacent tissues with 25% pancreatin in PBS, transferred to PBS supplemented with 5% newborn calf serum to stop enzymatic activity and washed in serum-free culture medium prior to explanation. The neural primordia were then explanted onto multi-well chamber slides that were pre-coated with fibronectin (50 μg/ml) for 1 hour. The neural primordia were cultured in 50 μl of either serum-free CHO—S-SFMII medium (GibcoBRL, USA) or condition medium of noggin producing-CHO cells, in the absence or presence of the tested compound, in a final concentration of 5 μM and incubated in a humid chamber for 24 hours. At the end of the incubation, the primordia were gently washed with PBS and fixed with Bouin's fluid, washed 3 times with PBS, dried and covered."}, "[8]": {"test_system": "male Sabra rats", "assay": "Blood glucose in streptozotocin-induced diabetic rats", "type": "in vivo, rat", "settings": "10 mg/animal I.P., insulin 0.125 units/animal one hour later", "method": "Diabetes was induced in male Sabra rats (150-200 gr) by I.P. injection of streptozotocin (Sigma, S0130) 60 mg/Kg dissolved in ph 4.5 saline (Biochemical and biophysical research comunications 197(3): 1549-1555 (1993)), which is known to destroy insulin-secreting pancreatic cells. After 2-7 days the rats were all diabetic, as determined by blood glucose level above 200 mg/dl which was measured with glucometer.\n12 rats were divided into 3 groups, with homogenic blood glucose level, each consisting of 4 animals\nGroup I was administered with K094A107 (SEQ ID NO: 102) 10 mg/animal (I.P.) followed by administration of insulin 0.125 units/animal (low concentration of insulin that nearly doesn't give any significant decrease in blood glucose level) one hour later.\nGroup II was administered with K094A205 (A-region in SEQ ID NO: 123) 10 mg/animal (I.P.) followed by insulin 0.125 units/animal one hour later.\nGroup III served as control and was administered I.P. with vehicle (NAC/DMSO-DIDV) followed by insulin 0.125 units/animal one hour later."}}, "note": "Where no end group is shown, it is not given here."}
{"molecule": "K094A107: compound comprising an IRK A-region derived peptide, N-myristylated and C-amidated (GGFTCHHVVRL-NH2; not fully specified (N-terminus))", "values": [{"measurement": "phosphorylation of ERK1", "setting": "[1]", "result": "increase the phosphorylation of ERK1 and p38-MAP in a dose dependent manner"}, {"measurement": "phosphorylation of IRK", "setting": "[2]", "result": "able to increase phosphorylation"}, {"measurement": "glucose uptake in combination with insulin", "setting": "[3]; 10 μM compound in the presence of 10 μU/ml insulin", "result": "synergistic"}, {"measurement": "glucose uptake", "setting": "[3]", "result": "increase glucose uptake levels beyond the level of control glucose uptake"}, {"measurement": "glucose uptake, dose dependence", "setting": "[3]; different concentrations of the compound (FIG. 6B)", "result": "induce glucose uptake in a dose-dependent manner"}, {"measurement": "phosphorylation of p38-MAP", "setting": "[4]", "result": "increase the phosphorylation of ERK1 and p38-MAP in a dose dependent manner"}, {"measurement": "phosphorylation of IRK substrates", "setting": "[5]", "result": "decrease of phosphorylation of IRK substrates, in a dose dependent manner"}, {"measurement": "phosphorylation of PKB", "setting": "[6]", "result": "able to increase phosphorylation"}]}
{"molecule": "K098A100: compound comprising ALK-3-derived A-region peptide (GLMRHENILGF; Alk3)", "values": [{"measurement": "neural crest migration in the presence of noggin", "setting": "[7]; 5 μM compound, 24 hours, condition medium of noggin producing-CHO cells", "result": "overcomes this inhibition and induces neural crest migration"}, {"measurement": "number of migrating neural crest cells", "setting": "[7]; 5 μM compound, 24 hours, serum-free medium, absence of noggin", "result": "the number of migrating cells is higher"}]}
{"molecule": "K094A205: compound comprising IRK A-region derived sequence, kept in a reducing environment (GGFTCHHVVRL; IRK)", "values": [{"measurement": "glucose uptake", "setting": "[3]", "result": "increase glucose uptake levels beyond the level of control glucose uptake"}, {"measurement": "time at which effect of a single administration on blood glucose was still notable", "setting": "[8]", "result": "≥ 24", "unit": "h"}, {"measurement": "glucose blood levels", "setting": "[8]; measured for 24 hours, vs vehicle plus insulin", "result": "marked reduction"}]}
{"molecule": "B1", "values": [{"measurement": "neural crest migration", "setting": "[7]; noggin alone, no compound", "result": "blocks the neural crest migration"}]}
